From US11857560B2, “Pharmaceutical compositions comprising substituted nucleotides and nucleosides for treating viral infections” (priority 2013, dated 2024)

Legend:
[1] = Cytotoxicity panel, CEM; conditions: human, CEM cells, Cytotoxicity (CC50 uM) CEM
[2] = Cytotoxicity panel, Huh-7; conditions: human, Huh-7 cells, Cytotoxicity (CC50 uM) Huh-7, Huh-7
[3] = Cytotoxicity panel, HepG2; conditions: human, HepG2 cells
[4] = Cytotoxicity panel, A204; type: cell-based; conditions: human, A204 cells
[5] = Cytotoxicity panel, H9c; type: cell-based; conditions: rat, H9c cells
[6] = Cytotoxicity panel, BxPC3; conditions: human, BxPC3 cells
[7] = Cellular toxicity in parallel with HCV replicon assay (XTT); conditions: human
[8] = Toxicity in Vero cells (Dengue assay); conditions: African green monkey
[9] = Toxicity in Huh-7 cells (Dengue assay); conditions: human, Huh-7 cells
[10] = system: Dengue Type 2; assay: Anti-Dengue virus cytoprotection assay, Vero cells; conditions: read-out: Dengue Type 2 Vero Cells (EC50 uM)
[11] = system: Dengue Type 2; assay: Anti-Dengue virus cytoprotection assay, Huh-7 cells; conditions: Huh-7, read-out: Dengue Type 2 Huh-7 Cells (EC50 uM)
[12] = Cytotoxicity in GT1b replicon cells; type: cell-based

Compound	CC50 [1] [µM]	CC50 [2] [µM]	CC50 [3] [µM]	further results
C[C@@]1(F)C(O)[C@@H](CO)O[C@H]1n1ccc(=S)[nH]c1=O (stereo partly shown) [ENUC-01946-1]	> 400	> 400	> 400	
CC(C)OC(=O)[C@H](C)NP(=O)(OC[C@H]1O[C@@H](n2ccc(=O)[nH]c2=O)[C@](C)(O)C1O)Oc1ccccc1 (stereo partly shown) [ENUC-01982-1]	150	65	159	CC50 [4]: 124 µM; CC50 [5]: 31 µM; CC50 [6]: 157 µM
C[C@@]1(O)C(O)[C@@H](COP(=O)(O)O)O[C@H]1n1ccc(=O)[nH]c1=S (stereo partly shown) [ENUC-01984-1]	> 400	> 400	> 400	CC50 at 72 h [7]: > 100 µM
C[C@H](NP(=O)(O)OC[C@H]1O[C@@H](n2ccc(=O)[nH]c2=S)[C@](C)(O)C1O)C(=O)O (stereo partly shown) [ENUC-01997-1]	> 400	> 400	> 400	CC50 at 72 h [7]: > 100 µM
CC(C)OC(=O)[C@H](C)N[P@@](=O)(OC[C@H]1O[C@@H](n2ccc(=O)[nH]c2=S)[C@](C)(O)C1O)Oc1ccccc1 (stereo partly shown) [ENUC-02024-1]	> 400	> 400	> 400	
CC(C)OC(=O)[C@H](C)N[P@@](=O)(OC[C@H]1O[C@@H](n2ccc(=O)[nH]c2=S)[C@](C)(O)C1O)Oc1ccccc1 (stereo partly shown) [ENUC-02024]				CC50 [8]: > 100 µM; CC50 [9]: > 100 µM; EC50 [10]: 56.2 µM; EC50 [11]: 24.9 µM
CC(C)OC(=O)[C@H](C)N[P@](=O)(OC[C@H]1O[C@@H](n2ccc(=O)[nH]c2=O)[C@](C)(F)C1O)Oc1ccccc1 (stereo partly shown) [ENUC-02025-1]	> 400	279	365	
CC(C)OC(=O)[C@H](C)N[P@@](=O)(OC[C@H]1O[C@@H](n2ccc(=O)[nH]c2=O)[C@](C)(F)C1O)Oc1ccccc1 (stereo partly shown) [ENUC-02026-1]	> 400	> 400	> 400	
CC(C)OC(=O)[C@H](C)NP(=O)(OC[C@H]1O[C@@H](n2ccc(=O)[nH]c2=[Se])[C@](C)(O)C1O)Oc1ccccc1 (stereo partly shown) [ENUC-02058-1]		> 100	> 400	
C#C[C@]1(COP(=O)(N[C@@H](C)C(=O)OC(C)C)Oc2ccccc2)O[C@@H](n2ccc(=O)[nH]c2=S)[C@@H](O)C1O (stereo partly shown) [ENUC-02069-1]	> 400	> 400	> 400	CC50 [9]: > 100 µM; EC50 [11]: > 100 µM
CC(C)OC(=O)[C@H](C)NP(=O)(OC[C@H]1O[C@@H](n2ccc(=O)[nH]c2=S)[C@@H](O)C1O)Oc1ccccc1 (stereo partly shown) [ENUC-02071-2]				CC50 at 72 h [7]: > 100 µM
CC(C)OC(=O)[C@H](C)NP(=O)(OC[C@H]1O[C@@H](n2ccc(=O)[nH]c2=S)[C@@H](O)C1O)Oc1ccccc1 (stereo partly shown) [ENUC-02072-1]	> 400	> 400	> 400	
CC(C)OC(=O)[C@H](C)NP(=O)(OC[C@H]1O[C@@H](n2ccc(=O)[nH]c2=S)[C@@H](C)C1O)Oc1ccccc1 (stereo partly shown) [ENUC-02078-1]	259	> 400	> 400	CC50 [9]: > 100 µM; EC50 [11]: 6.07 µM
CC(C)OC(=O)[C@H](C)NP(=O)(OC[C@@]1(N=[N+]=[N-])O[C@@H](n2ccc(=S)[nH]c2=O)[C@@H](O)C1O)Oc1ccccc1 (stereo partly shown) [ENUC-02083-1]	229		> 400	CC50 [9]: > 100 µM; EC50 [11]: 4.82 µM; CC50 at 72 h [7]: > 100 µM
CC(C)OC(=O)[C@H](C)N[P@](=O)(OC[C@H]1O[C@@H](n2ccc(=O)[nH]c2=O)[C@](C)(F)C1O)Oc1ccccc1 (stereo partly shown) [GS-7977, reference compound]				CC50 [12]: > 2 µM
